The results in this text go back to patent US8268840B2, “Pyrimidinyl pyridone inhibitors of kinases” (Roche Palo Alto LLC, priority 2008, dated 2012).

One series deals with Human JNK1α1 (Homo sapiens, UniProt P45983). The series can be described thus: JNK assay in vitro, phosphorylation of GST-ATF2 (19-96) with [γ-33P] ATP. In kind it is biochemical. The conditions noted are these: 2 nM enzyme, 1 μM ATF2, 6 μM ATP (Km), 30° C. for 30 min, ten concentration curves; read-out: IC50 JNK1. As for the experimental part:
(§1) JNK activity was measured by phosphorylation of GST-ATF2 (19-96) with [γ-^33P] ATP. The enzyme reaction was conducted at Km concentrations of ATP and the substrate at final volume of 40 μl in buffer containing 25 mM HEPES, pH 7.5, 2 mM dithiothreitol, 150 mM NaCl, 20 mM MgCl2, 0.001% Tween® 20, 0.1% BSA and 10% DMSO. Human JNK2α2 assay contains 1 nM enzyme, 1 μM ATF2, 8 μM ATP with 1 uCi [γ-^33P] ATP. Human JNK1α1 assay contains 2 nM enzyme, 1 μM ATF2, 6 μM ATP with 1 μCi [γ-^33P] ATP. Human JNK3 (Upstate Biotech #14-501M) assay contains 2 nM enzyme, 1 μM ATF2, 4 μM ATP with 1 μCi [γ-^33P] ATP. The enzyme assay was carried out in the presence or absence of several compound concentrations. JNK and compound were pre-incubated for 10 min., followed by initiation of the enzymatic reaction by adding ATP and the substrate. The reaction mixture was incubated at 30° C. for 30 min. At the end of incubation, the reaction was terminated by transferring 25 μl of the reaction mixture to 150 μl of 10% glutathione Sepharose® slurry (Amersham #27-4574-01) containing 135 mM EDTA. The reaction product was captured on the affinity resin, and washed on a filtration plate (Millipore, MABVNOB50) with phosphate buffered saline for six times to remove free radionucleotide. The incorporation of ^33P into ATF2 was quantified on a microplate scintillation counter (Packard Topcount). Compound inhibition potency on JNK was measured by IC50 value generated from ten concentration inhibition curves fitted into the 3-parameter model: % inhibition=Maximum/(1+(IC50/[Inhibitor])^slope). Data were analyzed on Microsoft Excel for parameter estimation.

Another series has as its target Human JNK2α2 (Homo sapiens, UniProt P45984). Described as above. In kind it is biochemical. The conditions noted are these: 1 nM enzyme, 1 μM ATF2, 8 μM ATP (Km), 30° C. for 30 min, ten concentration curves; read-out: IC50 JNK2. Here is the method:
as §1

Chain of Human JNK2α2 (P45984 whole entry): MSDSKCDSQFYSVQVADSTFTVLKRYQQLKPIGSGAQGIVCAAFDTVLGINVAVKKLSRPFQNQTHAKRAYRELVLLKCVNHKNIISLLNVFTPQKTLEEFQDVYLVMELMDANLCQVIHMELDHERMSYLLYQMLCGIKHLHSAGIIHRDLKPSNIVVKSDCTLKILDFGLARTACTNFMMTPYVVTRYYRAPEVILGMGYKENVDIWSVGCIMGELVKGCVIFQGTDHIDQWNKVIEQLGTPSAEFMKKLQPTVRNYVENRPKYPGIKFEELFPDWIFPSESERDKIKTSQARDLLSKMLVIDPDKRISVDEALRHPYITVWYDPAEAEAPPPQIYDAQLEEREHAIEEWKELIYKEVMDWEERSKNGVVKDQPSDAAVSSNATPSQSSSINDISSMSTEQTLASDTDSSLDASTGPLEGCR
Chain of Human JNK1α1 (P45983 1-384 isoform P45983-2): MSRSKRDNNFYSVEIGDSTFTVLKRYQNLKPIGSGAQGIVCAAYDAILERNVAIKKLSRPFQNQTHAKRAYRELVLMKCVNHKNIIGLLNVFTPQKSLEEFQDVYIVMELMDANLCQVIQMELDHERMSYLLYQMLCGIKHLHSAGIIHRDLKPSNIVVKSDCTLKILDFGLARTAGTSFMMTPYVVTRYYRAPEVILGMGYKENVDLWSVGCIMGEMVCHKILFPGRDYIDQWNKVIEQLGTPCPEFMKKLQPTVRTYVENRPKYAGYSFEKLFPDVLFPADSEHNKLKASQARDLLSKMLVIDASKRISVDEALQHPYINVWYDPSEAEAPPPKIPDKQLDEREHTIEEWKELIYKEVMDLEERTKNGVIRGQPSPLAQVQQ

For `Nc1cc(=O)n([C@@H]2CC[C@@H](O)C2)c2nc(NC3CCCCC3)ncc12` (racemic) [Compound I-1, 5-Amino-2-cyclohexylamino-8-((1R,3R)-3-hydroxy-cyclopentyl)-8H-pyrido[2,3-d]pyrimidin-7-one], the melting point lay within 169.5 to 170 °C. Besides, on Human JNK1α1, the IC50 is 0.0111 µM. For the same compound, the IC50 at Human JNK2α2 worked out at 0.0258 µM.

Regarding `Nc1cc(=O)n(C2CCC2)c2nc(NC3CCCCC3)ncc12` [Compound I-3, 5-Amino-8-cyclobutyl-2-cyclohexylamino-8H-pyrido[2,3-d]pyrimidin-7-one], the melting point lay within 120 to 121.5 °C. In addition, the IC50 on Human JNK1α1 stood at 0.0179 µM. Also, the IC50 on Human JNK2α2 was 0.0403 µM.

With `Nc1cc(=O)n(C2CCCC2)c2nc(N[C@H]3CC[C@H](O)CC3)ncc12` [Compound I-5, 5-Amino-8-cyclopentyl-2-(4-hydroxy-cyclohexylamino)-8H-pyrido[2,3-d]pyrimidin-7-one], the melting point was 246.5 to 248 °C. In addition, the IC50 on Human JNK1α1 came out at 0.0205 µM. For the same compound, the IC50 at Human JNK2α2 came to 0.0439 µM.

Compound `Nc1cc(=O)n(C2CCCCC2)c2nc(N[C@H]3CC[C@H](C(=O)N4CCOCC4)CC3)ncc12` [Compound I-7, 5-Amino-8-cyclohexyl-2-[4-(morpholine-4-carbonyl)-cyclohexylamino]-8H-pyrido[2,3-d]pyrimidin-7-one] came in with a melting point of 185 to 203 °C. For the same compound, on Human JNK1α1, the IC50 was determined as 0.0316 µM. On Human JNK2α2, the IC50 came out at 0.0397 µM.

Take `Cc1c(N)c2cnc(N[C@H]3CC[C@H](C(=O)N4CCCC4)CC3)nc2n(C2CCC2)c1=O` [Compound I-9, 5-Amino-8-cyclobutyl-6-methyl-2-[4-(pyrrolidine-1-carbonyl)-cyclohexylamino]-8H-pyrido[2,3-d]pyrimidin-7-one]: the melting point is 276.6 to 278.4 °C. For the same compound, the IC50 at Human JNK1α1 stood at 0.0344 µM. In addition, the IC50 on Human JNK2α2 turned out to be 0.0377 µM.

For orientation: melting point means the temperature of the solid-liquid transition. The IC50 is the concentration that inhibits the measured activity by half.
